Patent publication US20260216238A1, “TETRATHIOMOLYBDIC ACID FOR USE IN TREATING COPPER METABOLISM-ASSOCIATED DISEASES OR DISORDERS (WILSON DISEASE)” (Alexion Pharmaceuticals, Inc., priority 2023, published 2026)

What was measured:
[1] = human, in vivo
Excerpt: Pharmacokinetics: Blood samples for PK analysis were collected to measure plasma total molybdenum and plasma ultrafiltrate (PUF) molybdenum.

[2] = human, in vivo; remark: listed apart in the source
[3] = test system: patients with Wilson disease (WD); experiment: Study 301: adverse events in participants who switched from SoC to TTM in the Extension Period; details: SoC: Weeks 0-48, N=70; TTM after switch: Weeks 49-96, N=61
[4] = test system: patients with Wilson disease (WD); experiment: Unified Wilson Disease Rating Scale (UWDRS) Part II total score (disability); assay type: in vivo, human; details: for UWDRS Part II (0-40) change from baseline, Mean (SD): pooled Studies 301 and 201; for UWDRS Part II (0-40) change from baseline, LSM / UWDRS Part II (0-40) change from baseline, Mean: Study 301 TTM long term set
Excerpt: Unified Wilson Disease Rating Scale (Parts I, II, and III): The UWDRS is a clinical rating scale designed to evaluate the neurological manifestations of WD that generally can be divided into 3 movement disorder syndromes: dystonic, ataxic, and Parkinsonian syndrome. The UWDRS comprises 3 parts: UWDRS Part I (level of consciousness, item 1), UWDRS Part II (a patient-reported review of daily activity items [disability], items 2 to 11), and UWDRS Part III (a detailed neurological examination, items 12 to 34).
The UWDRS Part I and Part III were assessed by a neurologist who is blinded to the treatment randomization, while UWDRS Part II may be reported to a non-blinded member of the study team by the patient, family member, or caregiver. The UWDRS has not been formally evaluated in adolescents. However, the components of Part I (level of consciousness), Part II (patient or caregiver-reported disability) and Part III (neurologic examination findings) were not fundamentally different between adults and adolescents. Patients aged 12 years and older were expected to be able to comply with UWDRS assessments.
Pooled results from all such participants will be integrated together into one timeline to allow analyses of changes in UWDRS, long-term copper control, and long-term safety laboratory data.

[5] = test system: patients with WD; details: cited from earlier work
[6] = test system: patients with Wilson disease (WD); experiment: UWDRS Part III minimal clinically important difference (MCID) responders and net promoter score; assay type: in vivo, human
Excerpt: To calculate net promoter scores, minimal clinically important differences (MCID) were first defined.
Therefore, distribution-based methods were used to compute MCID threshold, half standard deviation (SD), and standard error of measurement (SEM) for the full Study 301 population and the Subpart E population. […] The difference between those two proportions represented the “net promoter score.”

[7] = test system: patients with Wilson disease (WD); assay type: in vivo
Excerpt: Adverse events were reported by the patient (or, when appropriate, by a caregiver, surrogate, or the patient's legally authorized representative). The Investigator and any qualified designees were responsible for detecting, documenting, and recording events that meet the definition of an AE or SAE and remain responsible for following up AEs that were serious, considered related to the study intervention or study procedures, or that caused the patient to discontinue the study.
The safety analysis was performed on the Safety Analysis Set. This dataset includes all patients who received at least 1 dose of randomized treatment. Patients were summarized according to the treatment actually received.
Acute worsening of neurologic symptoms typically within 6 months of start of therapy is a known complication associated with chelation therapy for WD. […] Neurologic AESI for Study 301 were considered as all AEs in the Medical Dictionary for Regulatory Activities (MedDRA) System Organ Class (SOC) “Nervous system disorders” or any other AE judged by the Investigator as an AESI.

[8] = Primary Evaluation Period, 48 Weeks

bis-choline tetrathiomolybdate [TTM]
Daily Mean AUC(0-48 weeks) PUF Mo, Mean [1]: 0.1 mmol/L | effect of age on plasma total molybdenum clearance [2]: not a significant covariate | Musculoskeletal and connective tissue disorders, E (events) [3]: 7 | Musculoskeletal and connective tissue disorders, participants with AE [3]: 7 (11.5) N (%) | UWDRS Part II score change (mean) ([4]; 0-48W, symptomatic patients): −1.7 | UWDRS Part II (0-40), Change from Baseline at 48 weeks, LSM ([4]; Study 301 Full Analysis Set): −0.1 | UWDRS Part II (0-40), Change from Baseline at 48 weeks, Mean ([4]; Study 301 Full Analysis Set): −0.6 | UWDRS Part II (0-40) change from baseline, Mean (SD) ([4]; TTM exposure 4 weeks): −0.3 (2.28) | UWDRS Part II (0-40) change from baseline, Mean (SD) ([4]; TTM exposure 12 weeks): −0.4 (2.76) | UWDRS Part II (0-40) change from baseline, Mean (SD) ([4]; TTM exposure 24 weeks): −0.4 (3.42) | UWDRS Part II (0-40) change from baseline, Mean (SD) ([4]; TTM exposure 36 weeks): −0.9 (4.11) | UWDRS Part II (0-40) change from baseline, Mean (SD) ([4]; TTM exposure 48 weeks): −1.2 (4.24) | UWDRS Part II (0-40) change from baseline, Mean (SD) ([4]; TTM exposure 60 weeks): −1.4 (4.35) | UWDRS Part II (0-40) change from baseline, Mean (SD) ([4]; TTM exposure 72 weeks): −1.9 (4.74) | UWDRS Part II (0-40) change from baseline, Mean (SD) ([4]; TTM exposure 96 weeks): −2.5 (6.11) | UWDRS Part II (0-40) change from baseline, Mean (SD) ([4]; TTM exposure 120 weeks): −3.1 (6.82) | UWDRS Part II (0-40) change from baseline, Mean (SD) ([4]; TTM exposure 144 weeks): −3.3 (6.61) | UWDRS Part II (0-40) change from baseline, Mean (SD) ([4]; TTM exposure 168 weeks): −6.2 (10.17) | UWDRS Part II (0-40) change from baseline, Mean (SD) ([4]; TTM exposure 192 weeks): −5.9 (9.88) | UWDRS Part II (0-40) change from baseline, Mean (SD) ([4]; TTM exposure 216 weeks): −7.1 (10.90) | UWDRS Part II (0-40) change from baseline, Mean (SD) ([4]; TTM exposure 240 weeks): −6.6 (10.09) | UWDRS Part II (0-40) change from baseline, Mean (SD) ([4]; TTM exposure 264 weeks): −6.2 (9.02) | UWDRS Part II (0-40), Difference at 48 weeks, LSM ([4]; TTM vs SoC, P 0.4430): 0.4 | UWDRS Part II (0-40) change from baseline, LSM ([4]; Week 24): −0.4 | UWDRS Part II (0-40) change from baseline, Mean ([4]; Week 24): −0.3 | UWDRS Part II (0-40) change from baseline, LSM ([4]; Week 48): −0.7 | UWDRS Part II (0-40) change from baseline, Mean ([4]; Week 48): −0.7 | UWDRS Part II (0-40) change from baseline, LSM ([4]; Week 72): −1.0 | UWDRS Part II (0-40) change from baseline, Mean ([4]; Week 72): −1.2 | UWDRS Part II (0-40) change from baseline, LSM ([4]; Week 96): −1.1 | UWDRS Part II (0-40) change from baseline, Mean ([4]; Week 96): −1.1 | UWDRS Part II (0-40) change from baseline, LSM ([4]; Week 120): −1.7 | UWDRS Part II (0-40) change from baseline, Mean ([4]; Week 120): −1.4 | UWDRS Part II (0-40) change from baseline, LSM ([4]; Week 144): −2.0 | UWDRS Part II (0-40) change from baseline, Mean ([4]; Week 144): −2.0 | reduction of mean serum cNCCcorrected compared with baseline ([5]; Study 201, Week 24, p<0.0001): 72% | patients with reversible liver function test elevations ([5]; human, in vivo): 39% | patients improved by ≥5 points in UWDRS Part III ([6]; Study 301, by 48 weeks): 44.8% | UWDRS Part III SD MCID Achievers, Net Promoter Score ([6]; improving minus worsening): 16% | UWDRS Part III SE MCID Achievers, Net Promoter Score ([6]; improving minus worsening): 20% | UWDRS Part III SD MCID Achievers, Improving ([6]; in vivo): 22% | UWDRS Part III SD MCID Achievers, Worsening ([6]; in vivo): 6% | UWDRS Part III SE MCID Achievers, Improving ([6]; in vivo): 28% | UWDRS Part III SE MCID Achievers, Worsening ([6]; in vivo): 8% | patients improved at 4-point change threshold in UWDRS Part III ([6]; incomplete and/or intolerant subgroup, 48 weeks): 43.1% | AEs in SOC Ear and labyrinth disorders ([7]; Primary Evaluation Period): 5.1% | AEs in SOC Hepatobiliary disorders ([7]; Primary Evaluation Period): 6.6% | AEs in SOC Investigations ([7]; Primary Evaluation Period): 33.6% | AEs in SOC Psychiatric disorders ([7]; Primary Evaluation Period): 19.0% | AEs in SOC Skin and subcutaneous tissue disorders ([7]; Primary Evaluation Period): 21.9% | incidence of SAEs, Nervous system disorders ([7]; Primary Evaluation Period): 4.4% | incidence of headache ([7]; Primary Evaluation Period): 8.0% | incidence of tremor ([7]; Primary Evaluation Period): 7.3% | participants with highest severity Grade 1 AEs, Nervous system disorders ([7]; Primary Evaluation Period): 24.1% | participants with highest severity Grade 2 AEs, Nervous system disorders ([7]; Primary Evaluation Period): 13.9% | Alanine aminotransferase increased AE, % participants [7, 8]: 14.6% | Alanine aminotransferase increased AE, N participants [7, 8]: 20 | Aspartate aminotransferase increased AE, % participants [7, 8]: 2.9% | Aspartate aminotransferase increased AE, N participants [7, 8]: 4 | Ear and labyrinth disorders (SOC) AE, % participants [7, 8]: 5.1% | Ear and labyrinth disorders (SOC) AE, N participants [7, 8]: 7 | Fatigue AE, % participants [7, 8]: 9.5% | Fatigue AE, N participants [7, 8]: 13 | Gamma-glutamyltransferase increased AE, % participants [7, 8]: 2.2% | Gamma-glutamyltransferase increased AE, N participants [7, 8]: 3 | Hepatic enzyme increased AE, % participants [7, 8]: 2.2% | Hepatic enzyme increased AE, N participants [7, 8]: 3 | Hepatobiliary disorders (SOC) AE, % participants [7, 8]: 6.6% | Hepatobiliary disorders (SOC) AE, N participants [7, 8]: 9 | Investigations (SOC) AE, % participants [7, 8]: 33.6% | Investigations (SOC) AE, N participants [7, 8]: 46 | Nervous system disorders (SOC) AE, % participants [7, 8]: 34.3% | Nervous system disorders (SOC) AE, N participants [7, 8]: 47 | Neutrophil count decreased AE, % participants [7, 8]: 1.5% | Neutrophil count decreased AE, N participants [7, 8]: 2 | Pruritus AE, % participants [7, 8]: 3.6% | Pruritus AE, N participants [7, 8]: 5 | Psychiatric disorders (SOC) AE, % participants [7, 8]: 19.0% | Psychiatric disorders (SOC) AE, N participants [7, 8]: 26 | Pyrexia AE, % participants [7, 8]: 5.8% | Pyrexia AE, N participants [7, 8]: 8 | Rash AE, % participants [7, 8]: 6.6% | Rash AE, N participants [7, 8]: 9 | Skin and subcutaneous tissue disorders (SOC) AE, % participants [7, 8]: 21.9% | Skin and subcutaneous tissue disorders (SOC) AE, N participants [7, 8]: 30 | incidence of AEs in SOC Nervous system disorders [7, 8]: 34.3% | patients with neurologic AEs ([7]; cohort 1 incomplete response or intolerant): 31.8% | participants with neurologic AESI in SOC Psychiatric disorders ([7]; seven events in 5 participants): 3.6%
